The text below walks through data of US9877962B2, “Piperazinyl derivatives for the treatment of cancer” (priority 2011, dated 2018).

Read-outs that look alike come from different tables or passages of the source.

Format in all cases: cell-based, human
One experiment relates to HL-60/R10. The experiment is described as follows: Cytotoxicity test (ViaLight Plus cell proliferation) on HL-60/R10. The following applies: doxorubicin-resistant line, 72 hours' incubation, cell viability vs 0.5% DMSO control, read-out: EC50 HL60/R10; for IC50: HL-60, 72 h. The source says: (§1) The effects of the compounds of the invention on the proliferation of cancer cells were studied on different human cancer cell lines of different tissue origin (MCF-7: breast cancer, MCF-7/adr adriamycin-resistant breast cancer, HL-60: acute promyelocytic leukaemia, HL-60/R10: doxorubicin-resistant acute promyelocytic leukaemia, HT29: colon adenocarcinoma, Mia Paca2: pancreatic tumour, Panc-1: pancreatic exocrine tumour, SK-OV-3: cisplatin- and adriamycin resistant ovarian cancer). The cancer cells used for this study were incubated at 37° C. in the presence of one of the compounds of the invention added to the culture medium at different concentrations.
(§2) The cancer cell lines were obtained from ATCC (American Type Culture Collection) for MCF-7, from Hôpital de la Pitié Salpetrière for MCF-7/adr and from Oncodesign (Dijon, France) for HL-60, HL-60/R10, HT29, MiaPaCa2, Panc-1 and SK-OV-3. They were cultured in RPMI 1640 medium containing 2 mM L-Glutamine supplemented with 10% foetal calf serum (Lonza; Verviers, Belgium). All the cell lines were held in culture at 37° C. in a humid atmosphere containing 5% CO2. Cell proliferation was assessed using the ViaLight® Plus Assay Kit (Lonza; Verviers, Belgium) following the manufacturer's instructions. The cells were seeded in 96-well culture plates compatible with luminescence read-off (white plates with transparent bottom) in a proportion of 5 000 to 10 000 cells per well in 100 μl of culture medium. After a pre-incubation time of 24 hours at 37° C., the compounds of the invention dissolved in dimethylsulfoxide (DMSO) were individually added to each well in a proportion of 0.5 μl per well. After 72 hours' incubation at 37° C. in a humid atmosphere containing 5% CO2, 50 μl of lysis buffer were added to each well and 15 minutes later 100 μl of ATP measuring agent were added. The plates were read under a luminometer to evaluate cell viability. The data obtained was processed by computer to obtain the EC50 value i.e. the concentration value of each of the compounds which induces 50% cell viability compared with a control value (0.5% DMSO alone).

The test system of a further experiment is MCF-7. Nature of the experiment: Cytotoxicity test (ViaLight Plus cell proliferation) on MCF-7. Particulars: 72 hours' incubation, cell viability vs 0.5% DMSO control; for IC50: Homo sapiens, MCF7, 72 h, read-out: EC50 MCF-7.
Source text: as §1, §2

The next experiment concerns HL-60. The experiment is described as follows: Cytotoxicity test (ViaLight Plus cell proliferation) on HL-60. The following applies: 72 hours' incubation, cell viability vs 0.5% DMSO control; for IC50: HL-60, 72 h, read-out: EC50 HL-60.
Source text: as §1, §2

A further experiment has as its system MCF-7/adr. Nature of the experiment: Cytotoxicity test (ViaLight Plus cell proliferation) on MCF-7/adr. Particulars: adriamycin-resistant line, 72 hours' incubation, cell viability vs 0.5% DMSO control; for IC50: Homo sapiens, NCI/ADR-RES, 72 h, read-out: EC50 MCF-7/adr.
Source text: as §1, §2

As for `Cc1cc(OC(F)(F)F)ccc1N(C(=O)CCl)C(C(=O)N1CCN[C@@H](C(C)C)C1)c1ccc(F)cc1` (single isomer, unassigned; dia1) [I-27 dia1], the EC50 in the experiment on HL-60/R10 worked out at 17 nM; in the experiment on MCF-7, 569 nM; in the experiment on HL-60, 2000 nM; in the experiment on MCF-7/adr, 131 nM.

As to `Cc1cc(Oc2ccccc2)ccc1N(C(=O)CCl)C(C(=O)N1CCN(C(=O)OC(C)(C)C)C(C(=O)NCc2ccccc2)C1)c1cccs1` (single isomer, unassigned; dia1) [I-53 dia1], the EC50 with HL-60/R10 worked out at 645 nM; in the experiment with MCF-7, 2060 nM; in the experiment with HL-60 it was 1980 nM; in the experiment with MCF-7/adr, 462 nM.

In the case of `CC[C@H]1CN(C(=O)C(c2ccc(F)cc2)N(C(=O)CCl)c2ccc(Oc3ccccc3)cc2C)CCN1` (single isomer, unassigned; dia2) [I-17 dia2], the EC50 in the experiment on HL-60/R10 was determined as 49 nM; in the experiment on MCF-7 it was 1990 nM; with HL-60 it was 1600 nM; in the experiment on MCF-7/adr it was 152 nM.

In the case of `CC[C@@H]1CN(C(=O)C(c2ccc(F)cc2)N(C(=O)CCl)c2ccc(Oc3ccccc3)cc2C)CCN1` (single isomer, unassigned; dia2) [I-18 dia2], the EC50 in the experiment on HL-60/R10 stood at 44 nM; in the experiment on MCF-7, 591 nM; in the experiment on HL-60 it was 352 nM; with MCF-7/adr it was 152 nM.

As to `C[C@H]1CN(C(=O)C(c2ccc(F)cc2)N(C(=O)CCl)c2ccc(Oc3ccccc3)cc2)CCN1` (single isomer, unassigned; dia2) [I-21 dia2], the EC50 with HL-60/R10 is 8 nM; with MCF-7 it was 869 nM; in the experiment on HL-60, 630 nM; in the experiment with MCF-7/adr, 10 nM.

Consider `C[C@@H]1CN(C(=O)C(c2ccc(F)cc2)N(C(=O)CCl)c2ccc(Oc3ccccc3)cc2)CCN1` (single isomer, unassigned; dia2) [I-22 dia2], for which the EC50 with HL-60/R10 stood at 18 nM; in the experiment on MCF-7 it was 430 nM; in the experiment on HL-60, 1150 nM; in the experiment with MCF-7/adr it was 34 nM.

Consider `Cc1cc(OC(C)C)ccc1N(C(=O)CCl)C(C(=O)N1CCN[C@@H](C(C)C)C1)c1ccc(F)cc1` (single isomer, unassigned; dia2) [I-26 dia2], for which the EC50 with HL-60/R10 turned out to be 8 nM; in the experiment with MCF-7 it was 869 nM; in the experiment with HL-60, 630 nM; in the experiment on MCF-7/adr it was 10 nM.

As for `Cc1cc(OC(F)(F)F)ccc1N(C(=O)CCl)C(C(=O)N1CCN[C@@H](C(C)C)C1)c1ccc(F)cc1` (single isomer, unassigned; dia2) [I-27 dia2], the EC50 is 18 nM with HL-60/R10, 430 nM with MCF-7, 1150 nM in the experiment with HL-60 and 34 nM in the experiment on MCF-7/adr.

Consider `Cc1cc(Oc2ccccc2)ccc1N(C(=O)CCl)C(C(=O)N1CCN(C(=O)OC(C)(C)C)[C@@H](C)C1)c1ccc(F)cc1` (stereo partly shown) [Example I-9], for which the IC50 stood at 99 nM in the experiment on HL-60/R10 (Homo sapiens), 2500 nM in the experiment on MCF-7, 771 nM in the experiment with HL-60 (Homo sapiens) and 108 nM in the experiment on MCF-7/adr.

`Cc1cc(Oc2ccccc2)ccc1N(C(=O)CCl)C(C(=O)N1C[C@@H](C)N(C(=O)OC(C)(C)C)[C@@H](C)C1)c1ccc(F)cc1` (stereo partly shown) [Example I-10]: the IC50 in the experiment with HL-60/R10 (Homo sapiens) stood at 131 nM; in the experiment with MCF-7 it was 2500 nM; with HL-60 (Homo sapiens), 641 nM; with MCF-7/adr it was 151 nM.

Regarding `Cc1cc(Oc2ccccc2)ccc1N(C(=O)CCl)C(C(=O)N1CCN(C(=O)OC(C)(C)C)[C@H](C)C1)c1ccc(F)cc1` (stereo partly shown) [Example I-11], the IC50 with HL-60/R10 (Homo sapiens) amounted to 68 nM; with MCF-7 it was 2500 nM; in the experiment with HL-60 (Homo sapiens), 939 nM; in the experiment on MCF-7/adr, 102 nM.

As to `Cc1cc(Oc2ccccc2)ccc1N(C(=O)CCl)C(C(=O)N1CCN[C@@H](C)C1)c1ccc(F)cc1` (stereo partly shown) [Example I-12], the IC50 worked out at 82 nM in the experiment with HL-60/R10 (Homo sapiens), 1790 nM with MCF-7, 2320 nM in the experiment with HL-60 (Homo sapiens) and 421 nM with MCF-7/adr. Also, the EC50 with HL-60/R10 (Homo sapiens, HL-60) was 82 nM; in the experiment with HL-60 (Homo sapiens, HL-60), 2320 nM.

On to `Cc1cc(Oc2ccccc2)ccc1N(C(=O)CCl)C(C(=O)N1CCN[C@H](C)C1)c1ccc(F)cc1` (stereo partly shown) [Example I-13], for which the IC50 came to 88 nM in the experiment on HL-60/R10 (Homo sapiens), 2500 nM with MCF-7, 1990 nM in the experiment with HL-60 (Homo sapiens) and 532 nM with MCF-7/adr. For the same compound, the EC50 is 88 nM in the experiment with HL-60/R10 (Homo sapiens, HL-60) and 1990 nM in the experiment on HL-60 (Homo sapiens, HL-60).

In the case of `Cc1cc(Oc2ccccc2)ccc1N(C(=O)CCl)C(C(=O)N1C[C@@H](C)N[C@@H](C)C1)c1ccc(F)cc1` (stereo partly shown) [Example I-14], the IC50 in the experiment on HL-60/R10 (Homo sapiens) was 95 nM; in the experiment on MCF-7 it was 2500 nM; in the experiment with HL-60 (Homo sapiens), 1850 nM; with MCF-7/adr, 232 nM. Further, the EC50 in the experiment with HL-60/R10 (Homo sapiens, HL-60) came to 95 nM; in the experiment with HL-60 (Homo sapiens, HL-60) it was 1850 nM.

As for `CC1CN(C(=O)C(c2cccs2)N(C(=O)CCl)c2cccc(C(F)(F)F)c2)CC(C)N1C(=O)OCc1ccccc1` (stereo not shown) [Example I-29], the IC50 in the experiment with HL-60/R10 (Homo sapiens) is 38 nM; in the experiment with MCF-7, 1030 nM; with HL-60 (Homo sapiens), 939 nM; in the experiment on MCF-7/adr, 54 nM.

For `CC1CN(C(=O)C(c2cccs2)N(C(=O)CCl)c2ccc(Oc3ccccc3)cc2)CC(C)N1` (stereo not shown) [Example I-30], the IC50 in the experiment on HL-60/R10 (Homo sapiens) amounted to 10 nM; with MCF-7 it was 1010 nM; in the experiment on HL-60 (Homo sapiens), 202 nM; in the experiment with MCF-7/adr, 44 nM.

Take `CC1CN(C(=O)C(c2cccs2)N(C(=O)CCl)c2ccc(Oc3ccccc3)cc2)CC(C)N1C(=O)OCc1ccccc1` (stereo not shown) [Example I-31]: the IC50 with HL-60/R10 (Homo sapiens) was 64 nM; in the experiment on MCF-7 it was 2500 nM; in the experiment on HL-60 (Homo sapiens), 766 nM; in the experiment with MCF-7/adr, 89 nM.

Take `CC1CN(C(=O)C(c2cccs2)N(C(=O)CCl)c2ccc(Oc3ccccc3)cc2)CC(C)N1C(=O)OC(C)(C)C` (stereo not shown) [Example I-32]: the IC50 was 78 nM with HL-60/R10 (Homo sapiens), 2500 nM in the experiment on MCF-7, 175 nM in the experiment on HL-60 (Homo sapiens) and 58 nM with MCF-7/adr.

For the compound `O=C(C(c1cccs1)N(C(=O)CCl)c1ccc(Oc2ccccc2)cc1)N1CCN2CCC[C@H]2C1` (stereo partly shown) [Example I-34], the IC50 stood at 30 nM in the experiment on HL-60/R10 (Homo sapiens), 1780 nM in the experiment with MCF-7, 1120 nM in the experiment on HL-60 (Homo sapiens) and 100 nM in the experiment with MCF-7/adr.

For the compound `O=C(C(c1cccs1)N(C(=O)CCl)c1ccc(Oc2ccccc2)cc1)N1CC2CC1CN2` (stereo not shown) [Example I-35], the IC50 with HL-60/R10 (Homo sapiens) came out at 249 nM; with MCF-7 it was 632 nM; in the experiment with HL-60 (Homo sapiens), 300 nM; in the experiment with MCF-7/adr, 863 nM.

For `C[C@@H]1CN(C(=O)C(c2cccs2)N(C(=O)CCl)c2ccc(Oc3ccccc3)cc2)CCN1C(=O)OCc1ccccc1` (stereo partly shown) [Example I-36], the IC50 in the experiment with HL-60/R10 (Homo sapiens) was 28 nM; in the experiment with MCF-7, 2500 nM; with HL-60 (Homo sapiens), 372 nM; in the experiment with MCF-7/adr it was 24 nM.

For `Cc1cc(Oc2ccccc2)ccc1N(C(=O)CCl)C(C(=O)N1CCN(C(=O)OCc2ccccc2)[C@H](C)C1)c1cccs1` (stereo partly shown) [Example I-37], the IC50 in the experiment with HL-60/R10 (Homo sapiens) worked out at 154 nM; with MCF-7, 2500 nM; in the experiment on HL-60 (Homo sapiens) it was 967 nM; in the experiment on MCF-7/adr it was 156 nM.

On to `Cc1c(N(C(=O)CCl)C(C(=O)N2C[C@@H](C)N[C@@H](C)C2)c2cccs2)cccc1C(F)(F)F` (stereo partly shown) [Example I-38], for which the IC50 in the experiment on HL-60/R10 (Homo sapiens) came out at 189 nM; with MCF-7, 2500 nM; in the experiment with HL-60 (Homo sapiens), 2500 nM; in the experiment with MCF-7/adr, 851 nM.

Regarding `CC[C@H]1CN(C(=O)C(c2cccs2)N(C(=O)CCl)c2ccc(Oc3ccccc3)cc2)CCN1` (stereo partly shown) [Example I-39], the IC50 was 9 nM with HL-60/R10 (Homo sapiens), 776 nM in the experiment on MCF-7, 1810 nM in the experiment with HL-60 (Homo sapiens) and 52 nM with MCF-7/adr.

“tert-butyl ester of 4-[2-[(2-chloro-acetyl)-(4-phenoxy-phenyl)-amino]-2-(4-fluoro-phenyl)-acetyl]-(S)-2-isopropyl-piperazine-1-carboxylic acid [I-1 dia2]”: the EC50 in the experiment with HL-60/R10 worked out at 23 nM; in the experiment with MCF-7 it was 1300 nM; in the experiment on HL-60, 824 nM; in the experiment with MCF-7/adr, 39 nM.
